Common to all, as to type: in vivo
The subject of data set [1] is anesthetized rat. As to the kind of experiment: Lypressin-induced T-wave increase in the ECG (lypressin coronary spasm), method of M. Leitold et al. An excerpt:
(§1) In particular, they have a pronounced cardiovascular action. On isolated strips of veins from dogs, they act against the K⁺-induced contraction in a lower concentration than on aorta strips. On isolated hearts from guinea pigs, they increase coronary flow as a function of the dose. On anesthetized rats, they prevent lypressin coronary spasm as a function of the dose and significiantly increase the survival rate of rats following acute cardiac infarction. On normotensive conscious dogs, they lower the systolic blood pressure for a period of 6-8 hours after oral administration. On artifically respirated anesthetized, thoraxotomized dogs, they reduce the mean arterial pressure, the left ventricular systolic pressure, the left ventricular end diastolic pressure and the pressure in the Arteria pulmonalis and reduce the peripheral vascular resistance. In contrast to the known organic nitrate esters, they also lead to a long-lasting reduction in the systolic blood pressure of spontaneously hypertensive rats. Such an action profile is not known for any of the substances of similar structure which have already been described.

The test system of data set [2] is conscious beagle dogs. Put plainly: Systolic blood pressure and heart rate following peroral administration. The settings on record: 5.0 mg/kg peroral, mean ± SEM.
Description: as §1

Data set [3] deals with Mice. Put plainly: Peroral tolerance in mice. The settings on record: 500 mg/kg perorally, mice. An excerpt:
Set forth below is data obtained on the compounds of Examples 17, 19 and 20 that illustrates the pharmacological action of the compounds of the present invention.

The test system of data set [4] is rats. Put plainly: Survival rate after acute coronary ligature, method of I. Lepran et al. The settings on record: 100.0 mg/kg orally 5 minutes before ligature.
Description: as §1

Marks after values point to notes of the source that are not given here.

For orientation: ED50 means the midpoint of the dose-response relation. Read a low ED50 as greater potency. `COc1ccccc1N1CCN(CC(O)CO[C@@H]2CO[C@H]3[C@@H]2OC[C@H]3O[N+](=O)[O-])CC1` (some centres unmarked) [Example 19, 5-O-<3-[4-(2-Methoxyphenyl)-piperzinyl]-2-hydroxypropyl>-isomannide-2-nitrate] showed an ED50 in data set [1] (Rattus norvegicus, po, 0.5 h, perorally 30 minutes before the lypressin injection, dose column in mg/kg) of 46.7 mg/kg. In data set [1] (perorally at various times before the lypressin injection), the “Duration of action at the ED50 dose” value is 4 h. Moreover, in data set [2], the “HR (heart rate), Action of substance after 1 hours” value is listed as 101 ± 5 Bts/M; the “HR (heart rate), Action of substance after 2 hours” value was determined as 90 ± 5 Bts/M; the “HR (heart rate), Action of substance after 4 hours” value is listed as 85 ± 5 Bts/M; the “HR (heart rate), Action of substance after 6 hours” value is recorded as 86 ± 5 Bts/M. Moreover, in data set [2], the “SBP (systolic blood pressure), Action of substance after 1 hours” value came to 105 ± 8 mmHg; the “SBP (systolic blood pressure), Action of substance after 2 hours” value was found to be 105 ± 5 mmHg; the “SBP (systolic blood pressure), Action of substance after 4 hours” value came to 118 ± 6 mmHg; the “SBP (systolic blood pressure), Action of substance after 6 hours” value stood at 126 ± 6 mmHg. Also, the “tolerance (clinical symptoms, fatal consequences)” value in data set [3] is “without clinical symptoms and without fatal consequences”. Further, in data set [4] (control 21/80), the “Number of rats surviving after an acute coronary ligature, 24 hours” value was 15/20* and the “Number of rats surviving after an acute coronary ligature, 7 days” value is 15/20*. Further, the “Number of rats surviving after an acute coronary ligature, 60 minutes” value in data set [4] (control 23/80) is given as 15/20*.

Values taken from EP0319030A1, “Aminopropanol derivatives of 1,4:3,6-dianhydro-hexitol nitrates, processes for their preparation and their use as medicaments” (Heinrich Mack Nachf., priority 1987, dated 1989).
